Test results from patent publication US10189796B2, “[4-(1,3,3-trimethyl-2-oxo-3,4-dihydro-1H-quinoxalin-7-yl)phenoxy]ethyloxy compound or salt thereof” (SANTEN PHARMACEUTICAL CO., LTD., priority 2015, dated 2019).
Structures can show the parent of a compound that is named as a salt.

How the values were obtained:
[1] = target: Recombinant human GR (Homo sapiens (Human), UniProt P04150); assay: GR competitive binding assay by fluorescence polarization; conditions: 20 μM test compound solution, 10 μL/well; 2 hours; DEX positive control; read-out: GR binding rate (%)
Chain of Recombinant human GR (P04150 whole entry): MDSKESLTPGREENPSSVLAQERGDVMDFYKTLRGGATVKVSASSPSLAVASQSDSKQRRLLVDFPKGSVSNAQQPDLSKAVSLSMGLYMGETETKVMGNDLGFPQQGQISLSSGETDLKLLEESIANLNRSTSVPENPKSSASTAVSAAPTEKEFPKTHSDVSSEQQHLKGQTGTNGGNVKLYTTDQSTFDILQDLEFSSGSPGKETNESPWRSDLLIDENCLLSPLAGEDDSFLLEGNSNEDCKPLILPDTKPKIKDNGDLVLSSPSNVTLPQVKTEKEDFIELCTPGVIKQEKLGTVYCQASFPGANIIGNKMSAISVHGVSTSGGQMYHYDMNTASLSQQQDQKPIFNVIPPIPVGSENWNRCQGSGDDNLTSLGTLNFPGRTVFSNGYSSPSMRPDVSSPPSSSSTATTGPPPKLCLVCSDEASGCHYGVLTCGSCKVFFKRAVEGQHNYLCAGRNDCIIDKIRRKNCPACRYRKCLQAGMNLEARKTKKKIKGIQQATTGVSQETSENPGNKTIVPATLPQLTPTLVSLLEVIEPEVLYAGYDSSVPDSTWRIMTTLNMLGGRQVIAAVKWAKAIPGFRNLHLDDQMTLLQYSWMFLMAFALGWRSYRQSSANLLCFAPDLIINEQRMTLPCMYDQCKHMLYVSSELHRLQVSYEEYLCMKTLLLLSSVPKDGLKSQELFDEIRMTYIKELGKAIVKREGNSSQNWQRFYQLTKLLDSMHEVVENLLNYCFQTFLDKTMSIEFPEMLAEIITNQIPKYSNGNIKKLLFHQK
Procedure: In order to evaluate a binding activity of the present compound to GR, a GR receptor competitor assay was carried out by a fluorescence polarization method. In the assay, a GR competitive binding assay kit (manufactured by Invitrogen, cat No. P2816) was used for the assay, and a procedure was carried out according to the protocol attached to the kit. Hereinafter, the specific method will be described.
GR screening buffer: A buffer containing 10 mM of potassium phosphate (pH 7.4), 20 mM of sodium molybdate (Na2MoO4), 0.1 mM of ethylene diamine tetraacetic acid (EDTA), 5 mM of dithiothreitol (DTT), 0.1 mM of stabilizing peptide and 2% of dimethylsulfoxide was prepared.
4×GS1 solution: Fluormone™ GS1, which is a fluorescent glucocorticoid ligand, was diluted with GR screening buffer, whereby a 4 nM solution was prepared.
4×GR solution: Recombinant human GR was diluted with GR screening buffer, whereby a 16 nM solution was prepared.
After a test compound was dissolved in dimethylsulfoxide, the resulting solution was diluted with GR screening buffer, whereby a 20 μM test compound solution was prepared. In addition, DEX was similarly dissolved, whereby a DEX solution with a […] concentration was prepared, and the solution was diluted with GR screening buffer, whereby a 2 mM DEX solution was prepared. DEX was used as positive control.
• 1) The test compound solution was added in an amount of 10 μL into each well of a 384-well plate. • 2) 4×GS1 solution and 4×GR solution were added in an amount of 5 μL into each well, respectively. • 3) GR screening buffer was added in an amount of 10 μL/well into each well in place of the test compound solution, which was made a negative control. • 4) A 2 mM of DEX was added in an amount of 10 μL/well into each well in place of the test compound solution, which was made a positive control. • 5) The plate was incubated in a dark place at room temperature for 2 hours, and fluorescence polarization of each well was measured. (Calculation Equation of GR Binding Ratio)
A GR binding ratio (%) was calculated from the following equation. GR binding ratio (%)=100×{1−(fluorescence polarization of test compound solution−average value of fluorescence polarization of positive control solution)/(average value of fluorescence polarization of negative control solution−average value of fluorescence polarization of positive control solution)}

[2] = tested on: IL-6 production in human corneal epithelium cell line (HCE-T); assay: IL-6 production inhibitory action evaluation test (LPS stimulation, HTRF); format: cell-based; conditions: 4 hours; for Emax: 100 μM test compound solution 10 μL/well, DEX treated group = 100, read-out: IL-6 production inhibitory ratio (% DEX); for IC50: IL-6 production inhibition
Procedure: To evaluate the action of the present compounds as a GR agonist, IL-6 production inhibitory action in human corneal epithelial cell line after LPS stimulation was examined The IL-6 production was measured by using the HTRF method (Cat No. 62IL6PEB manufactured by Cisbio Bioassays, Inc.) according to the attached protocol. The specific method is described below.
LPS solution: After dissolving LPS in PBS(−), the resulting solution was diluted with a culture solution, whereby an LPS solution with a 1 μg/mL concentration was prepared.
After dissolving the test compound in dimethylsulfoxide, the solution was diluted with a 10% FBS-DMEM/Ham's F12 medium, whereby a 100 μM of the test compound solution was prepared. […] In addition, DEX was similarly dissolved, whereby a 100 μM concentration of the DEX solution was prepared, and an IL-6 production inhibitory ratio of DEX was measured, and used for calculation of Efficacy (% DEX).
Used cells: human corneal epithelium cell line (HCE-T) (RIKEN, Institute of Physical and Chemical Research)
The cells continued to subculture according to this method were used for the test. (Test Method and Measurement Method) • 1) The subcultured HCE-T was recovered and the cells were seeded at 2.0×10^4 cells/0.1 mL/well in a 96-well flat bottom culture plate. • 2) After culturing overnight, medium the medium was removed and each 80 μL/well of 10%
FBS-DMEM/Ham's F12 medium was added. • 3) Test compound solution was added with each 10 μL/well. • 4) LPS solution was added with each 10 μL/well. • 5) The sample to which 1% dimethylsulfoxide-containing 10% FBS-DMEM/Ham's F12 medium was added with each 10 μL/well in place of each test compound solution, and 10% FBS-DMEM/Ham's F12 medium was added in place of the LPS solution was made a negative control. • 6) The sample in which 1% dimethylsulfoxide-containing 10% FBS-DMEM/Ham's F12 medium was added with each 10 μL/well in place of each test compound solution was made a positive control. • 7) After completion of 4 hours cultivation, the supernatant was recovered and the amount of IL-6 released in the supernatant was measured by using an HTRF human IL-6 Kit. • 8) The IL-6 production inhibitory ratio was calculated according to the following calculation formula. (Calculation of IL-6 Production Inhibitory Ratio)
The IL-6 production inhibitory ratio (%) was calculated by the following formula. IL-6 production inhibitory ratio (%)=100×{1−(IL-6 produced amount of each test compound solution−average value of IL-6 produced amount of negative control group)/(average value of IL-6 produced amount of positive control group−average value of IL-6 produced amount of negative control group)}(%)
Further, the IL-6 production inhibitory ratio (Efficacy (% DEX)) when the DEX treated group was made 100 was calculated. Efficacy (% DEX)=100×{(average value of IL-6 production inhibitory ratio of each test compound solution)/(average value of IL-6 production inhibitory ratio of DEX treated group)}(%)
In addition, IC50 was calculated according to a conventional method. IDBS XLfit4 was used for the calculation.

Row | Compound | inhibition at 10 µM [1] [%] | Emax [2] [%] | IC50 [2] [nM] | inhibition at 20 µM (stock) [1] [%]
1 | COc1cc(OCC(O)CC(=O)N2CCCC2)ccc1-c1ccc2c(c1COc1cc(F)ccc1C)N(C)C(=O)C(C)(C)N2 (centres unmarked) [Compound 10-1, 8-(5-fluoro-2-methylphenoxymethyl)-7-[4-[3-(N-pyrrolidylcarbonyl)-2-hydroxypropyl]oxy-2-methoxyphenyl]-1,3,3-trimethyl-3,4-dihydro-1H-quinoxalin-2-one] | 94 |  |  | 
2 | CCOC(=O)CC(O)COc1ccc(-c2ccc3c(c2COc2cc(F)ccc2C)N(C)C(=O)C(C)(C)N3)c(OC)c1 (centres unmarked) [Compound 7-1, 7-[4-(3-ethoxycarbonyl-2-hydroxypropyl)oxy-2-methoxyphenyl]-8-(5-fluoro-2-methylphenoxymethyl)-1,3,3-trimethyl-3,4-dihydro-1H-quinoxalin-2-one] | > 99 |  |  | 
3 | COc1cc(OCC(O)CC(=O)O)ccc1-c1ccc2c(c1COc1cc(F)ccc1C)N(C)C(=O)C(C)(C)N2 (centres unmarked) [Compound 9-1, 7-[4-(3-Carboxy-2-hydroxypropyl)oxy-2-methoxyphenyl]-8-(5-fluoro-2-methylphenoxymethyl)-1,3,3-trimethyl-3,4-dihydro-1H-quinoxalin-2-one] | > 99 |  |  | 
4 | COc1cc(OCCO)ccc1-c1ccc2c(c1COc1cc(F)ccc1C)N(C)C(=O)C(C)(C)N2 [Compound 3-1, 8-(5-fluoro-2-methylphenoxymethyl)-7-[4-(2-hydroxyethyl)oxy-2-methoxyphenyl]-1,3,3-trimethyl-3,4-dihydro-1H-quinoxalin-2-one] | > 99 |  |  | 
5 | COc1cc(OCC(O)CC(=O)N2CCCCC2)ccc1-c1ccc2c(c1COc1cc(F)ccc1C)N(C)C(=O)C(C)(C)N2 (centres unmarked) [Compound 10-3, 8-(5-fluoro-2-methylphenoxymethyl)-7-[4-[3-(N-piperidino)carbonyl-2-hydroxy-propyl]oxy-2-methoxyphenyl]-1,3,3-trimethyl-3,4-dihydro-1H-quinoxalin-2-one] | > 99 |  |  | 
6 | COc1cc(OC[C@H](C)OC(=O)CN)ccc1-c1ccc2c(c1COc1cc(F)ccc1C)N(C)C(=O)C(C)(C)N2 [Compound 11-4, (S)-7-[4-(2-aminoacetoxypropyl)oxy-2-methoxyphenyl]-8-(5-fluoro-2-methylphenoxy-methyl)-1,3,3-trimethyl-3,4-dihydro-1H-quinoxalin-2-one hydrochloride] |  | 94 |  | 
7 | CCOC(=O)C(O)COc1ccc(-c2ccc3c(c2COc2cc(F)ccc2C)N(C)C(=O)C(C)(C)N3)c(OC)c1 (stereo in doubt) [Compound 1-6, (R)-7-[4-(2-ethoxycarbonyl-2-hydroxyethyl)oxy-2-methoxyphenyl]-8-(5-fluoro-2-methylphenoxymethyl)-1,3,3-trimethyl-3,4-dihydro-1H-quinoxalin-2-one] | 87 | 89 | < 1 | 
8 | COc1cc(OC[C@H](C)OC(=O)[C@@H](N)C(C)C)ccc1-c1ccc2c(c1COc1cc(F)ccc1C)N(C)C(=O)C(C)(C)N2 [Compound 11-5, 7-[4-[(2S)-[(2S)-amino-3-methylbutanoyloxy]propyl]oxy-2-methoxyphenyl]-8-(5-fluoro-2-methylphenoxymethyl)-1,3,3-trimethyl-3,4-dihydro-1H-quinoxalin-2-one hydrochloride] | > 99 | 94 |  | 
9 | COc1cc(OC[C@H](O)CC#N)ccc1-c1ccc2c(c1COc1cc(F)ccc1C)N(C)C(=O)C(C)(C)N2 [Compound 5-1, (R)-7-[4-(3-cyano-2-hydroxypropyl)oxy-2-methoxyphenyl]-8-(5-fluoro-2-methyl-phenoxymethyl)-1,3,3-trimethyl-3,4-dihydro-1H-quinoxalin-2-one] | 88 | 98 | 14 | 
10 | COc1cc(OC[C@@H](O)CO)ccc1-c1ccc2c(c1COc1cc(F)ccc1C)N(C)C(=O)C(C)(C)N2 [Compound 4-2, (S)-7-[4-(2,3-dihydroxypropyl)oxy-2-methoxyphenyl]-8-(5-fluoro-2-methylphenoxy-methyl)-1,3,3-trimethyl-3,4-dihydro-1H-quinoxalin-2-one] |  |  |  | > 99
11 | COc1cc(OCC(O)CO)ccc1-c1ccc2c(c1COc1cc(F)ccc1C)N(C)C(=O)C(C)(C)N2 (centres unmarked) [Compound 4-1, 7-[4-(2,3-dihydroxypropyl)oxy-2-methoxyphenyl]-8-(5-fluoro-2-methylphenoxymethyl)-1,3,3-trimethyl-3,4-dihydro-1H-quinoxalin-2-one] | > 99 |  |  | 
12 | COc1cc(OCC(O)CC(=O)OC(C)(C)C)ccc1-c1ccc2c(c1COc1cc(F)ccc1C)N(C)C(=O)C(C)(C)N2 (centres unmarked) [Compound 7-2, 7-[4-(3-t-butoxycarbonyl-2-hydroxypropyl)oxy-2-methoxyphenyl]-8-(5-fluoro-2-methylphenoxymethyl)-1,3,3-trimethyl-3,4-dihydro-1H-quinoxalin-2-one] | > 99 | > 99 | 83 | 
13 | COc1cc(OC[C@H](O)CO)ccc1-c1ccc2c(c1COc1cc(F)ccc1C)N(C)C(=O)C(C)(C)N2 [Compound 4-3, (R)-7-[4-(2,3-dihydroxypropyl)oxy-2-methoxyphenyl]-8-(5-fluoro-2-methylphenoxy-methyl)-1,3,3-trimethyl-3,4-dihydro-1H-quinoxalin-2-one] | 88 |  |  | 
